Test results as given in ChEMBL document CHEMBL5143634, “Design, synthesis, and anti-influenza A virus activity evaluation of novel indole containing derivatives of triazole” (Bioorg Med Chem Lett, 2022).

Tests used:
Influenza A virus [1] = experiment: Antiviral activity against Influenza A virus A/WSN/33 (H1N1) infected in HEK293T cells at 10 uM by Gaussia luciferase reporter assay; format: functional; conditions: HEK-293T
Influenza A virus [2] = experiment: Antiviral activity against Influenza A virus A/WSN/33 (H1N1) infected in HEK293T cells by Gaussia luciferase reporter assay; format: functional, organism-based; conditions: HEK-293T
[3] = Selectivity index, ratio of CC50 for human HEK293T cells to IC50 for antiviral activity against Influenza A virus A/WSN/33 (H1N1) infected in HEK293T cells; format: toxicity, cell-based; conditions: read-out: Ratio CC50/IC50
[4] = Cytotoxicity against human HEK293T cells assessed as cell viability after 48 hrs by CCK-8 assay; format: toxicity, cell-based, HEK-293T

Cn1cc(SCc2nnc(SCc3ccccc3OC(F)(F)F)n2-c2c(Cl)cccc2Cl)c2ccccc21
inhibition at 10 µM (Influenza A virus [1]): > 50%
IC50 (Influenza A virus [2]): 1.41 µM
selectivity ratio [3]: > 70.9
CC50 at 48 h [4]: > 100 µM

Cn1cc(SCc2nnc(SCc3ccc(Cl)c(F)c3)n2-c2c(Cl)cccc2Cl)c2ccccc21
inhibition at 10 µM (Influenza A virus [1]): > 50%
IC50 (Influenza A virus [2]): 7.12 µM
selectivity ratio [3]: > 14
CC50 at 48 h [4]: > 100 µM

Cn1cc(SCc2nnc(SCc3ccccc3Cl)n2-c2c(Cl)cccc2Cl)c2ccccc21
inhibition at 10 µM (Influenza A virus [1]): > 50%
IC50 (Influenza A virus [2]): 7.46 µM
selectivity ratio [3]: 6.65
CC50 at 48 h [4]: 49.6 µM

Cn1cc(SCc2nnc(SCc3cccc(Cl)c3F)n2-c2c(Cl)cccc2Cl)c2ccccc21
inhibition at 10 µM (Influenza A virus [1]): > 50%
IC50 (Influenza A virus [2]): 4.21 µM
selectivity ratio [3]: > 23.8
CC50 at 48 h [4]: > 100 µM

Cn1cc(SCc2nnc(SCc3ccc(Cl)cc3F)n2-c2c(Cl)cccc2Cl)c2ccccc21
inhibition at 10 µM (Influenza A virus [1]): > 50%
IC50 (Influenza A virus [2]): 11.5 µM
selectivity ratio [3]: 7.67
CC50 at 48 h [4]: 87.3 µM

Cn1cc(SCc2nnc(SCc3cc(Cl)ccc3F)n2-c2c(Cl)cccc2Cl)c2ccccc21
inhibition at 10 µM (Influenza A virus [1]): > 50%
IC50 (Influenza A virus [2]): 2.83 µM
selectivity ratio [3]: > 35.3
CC50 at 48 h [4]: > 100 µM

Cn1cc(SCc2nnc(SCc3cccc(Cl)c3Cl)n2-c2c(Cl)cccc2Cl)c2ccccc21
inhibition at 10 µM (Influenza A virus [1]): > 50%
IC50 (Influenza A virus [2]): 2.14 µM
selectivity ratio [3]: > 46.7
CC50 at 48 h [4]: > 100 µM

Cn1cc(SCc2nnc(SCc3ccccc3C#N)n2-c2c(Cl)cccc2Cl)c2ccccc21
inhibition at 10 µM (Influenza A virus [1]): > 50%
IC50 (Influenza A virus [2]): 3.18 µM
selectivity ratio [3]: 24.7
CC50 at 48 h [4]: 78.6 µM

Cn1cc(SCc2nnc(SCc3ccc(Cl)cc3Cl)n2-c2c(Cl)cccc2Cl)c2ccccc21
inhibition at 10 µM (Influenza A virus [1]): > 50%
IC50 (Influenza A virus [2]): 6.19 µM
selectivity ratio [3]: > 16.2
CC50 at 48 h [4]: > 100 µM

Cn1cc(SCc2nnc(SCc3cc(Cl)ccc3Cl)n2-c2c(Cl)cccc2Cl)c2ccccc21
inhibition at 10 µM (Influenza A virus [1]): > 50%
IC50 (Influenza A virus [2]): 5.12 µM
selectivity ratio [3]: > 19.5
CC50 at 48 h [4]: > 100 µM

Cn1cc(SCc2nnc(S)n2-c2c(Cl)cccc2Cl)c2ccccc21
inhibition at 10 µM (Influenza A virus [1]): > 50%
IC50 (Influenza A virus [2]): 1.48 µM
selectivity ratio [3]: > 67.6
CC50 at 48 h [4]: > 100 µM

Cn1cc(SCc2nnc(SCc3c(F)cccc3Cl)n2-c2c(Cl)cccc2Cl)c2ccccc21
inhibition at 10 µM (Influenza A virus [1]): > 50%
IC50 (Influenza A virus [2]): 3.94 µM
selectivity ratio [3]: > 25.4
CC50 at 48 h [4]: > 100 µM

Cn1cc(SCc2nnc(SCc3ccc(OC(F)(F)F)c(Cl)c3)n2-c2c(Cl)cccc2Cl)c2ccccc21
inhibition at 10 µM (Influenza A virus [1]): > 50%
IC50 (Influenza A virus [2]): 7.49 µM
selectivity ratio [3]: 10.4
CC50 at 48 h [4]: 77.7 µM

Cn1cc(SCc2nnc(SCc3cc(C(F)(F)F)ccc3Cl)n2-c2c(Cl)cccc2Cl)c2ccccc21
inhibition at 10 µM (Influenza A virus [1]): > 50%
IC50 (Influenza A virus [2]): 5.1 µM
selectivity ratio [3]: 10.6
CC50 at 48 h [4]: 53.8 µM

Cn1cc(SCc2nnc(SCc3ccc(Cl)cc3C(F)(F)F)n2-c2c(Cl)cccc2Cl)c2ccccc21
inhibition at 10 µM (Influenza A virus [1]): > 50%
IC50 (Influenza A virus [2]): 2.59 µM
selectivity ratio [3]: 21.8
CC50 at 48 h [4]: 56.5 µM

CCOC(=O)c1c(CSc2nnc(CSc3cn(C)c4ccccc34)n2-c2c(Cl)cccc2Cl)n(C)c2cc(Br)c(OC(C)=O)cc12
inhibition at 10 µM (Influenza A virus [1]): > 50%
IC50 (Influenza A virus [2]): 2.27 µM
selectivity ratio [3]: > 44
CC50 at 48 h [4]: > 100 µM

Cn1cc(SCc2nnc(SCc3ccccc3)n2-c2c(Cl)cccc2Cl)c2ccccc21
inhibition at 10 µM (Influenza A virus [1]): > 50%
IC50 (Influenza A virus [2]): 1.34 µM
selectivity ratio [3]: > 74.6
CC50 at 48 h [4]: > 100 µM

Cn1cc(SCc2nnc(SCc3c(Cl)cccc3Cl)n2-c2c(Cl)cccc2Cl)c2ccccc21
inhibition at 10 µM (Influenza A virus [1]): > 50%
IC50 (Influenza A virus [2]): 9.1 µM
selectivity ratio [3]: > 11
CC50 at 48 h [4]: > 100 µM

NC(=O)c1ncn([C@@H]2O[C@H](CO)[C@@H](O)[C@H]2O)n1 [RIBAVIRIN]
IC50 (Influenza A virus [2]): 27.8 µM
CC50 at 48 h [4]: > 100 µM
